From patent publication US9765113B2, “Methods and agents for the treatment of cancer” (INTERK PEPTIDE THERAPEUTICS LIMITED, priority 2003, dated 2017)
Read-outs that look alike come from different tables or passages of the source. Each block holds one compound with its values, some of them ahead of it. Ends that are not written are not given here.

What was measured:
HUVEC cells = assay: Cell proliferation assay using MTT; assay type: cell-based, human
Protocol: The ability of the 10(4) peptide […] (SEQ ID No: 7) linked to the signal peptide […] (SEQ ID No: 1) to inhibit the proliferation of the above cell lines was assessed using the cell proliferation assay described in Example 2.1.

HT29 colon cancer cells [1] = assay: Annexin-V-FITC FACScan apoptosis analysis; assay type: cell-based; settings: peptide 16 hours, staurosporine 1 μM 1-2 hours
Protocol: (§1) The killing of HT29 cancer cells compared to normal keratinocytes, human umbilical vein epithelial cells (HUVECs) and skin fibroblasts by the peptide […] (IK2) (SEQ ID No: 16) was assessed. Briefly, cells were recovered by trypsinisation and resuspended into fresh culture medium. Cell viability was determined (0.4% Trypan Blue in phosphate buffered saline (PBS) 1:1 v/v), and 0.75×10^6 viable cells were passaged into a 25 cm^2 tissue culture flask then cultured for 24 hours at 37° C., 5% CO2 in air. Immediately prior to the addition of the IK2 peptide, culture media was removed by decanting and replaced with fresh media (2.0 mls minus volume addition of IK2 peptide). The treated cells were then cultured for 16 hours.
(§2) Cells were prepared as above for the positive control. Staurosporine (Sigma #S5921) was added to the culture media to a final concentration of 1 μM and the cells exposed to the apoptosis inducer for a maximum of 1-2 hours. For a negative control, vehicle alone (normal saline) was added to cell culture media.
Apoptotic cells were detected by FACScan analysis utilising Annexin-V-FITC (Sigma kit #A2214) to indicate apoptosis. For the analysis, cells were recovered by trypsinisation as above, and resuspended (˜1×10^6 cells/ml) into 1× binding buffer (Sigma #B9796). […] Cells were incubated at room temperature for 10 minutes in the dark and fluorescence determined by flow cytometer. […]

HUVEC = assay: Annexin-V-FITC FACScan apoptosis analysis; settings: FIG. 23
Protocol: as §1, §2
(§3) Apoptotic cells were detected by FACScan analysis utilising Annexin-V-FITC (Sigma kit #A2214) to indicate apoptosis. For the analysis, cells were recovered by trypsinisation as above, and resuspended (˜1×10^6 cells/ml) into 1× binding buffer (Sigma #B9796). 500 μl of cell suspension was then aliquoted into a 10 ml plastic test tube, prior to the addition of 5 μl of Annexin-V FITC and 10 μl of propidium iodide (Sigma #P2667). Cells were incubated at room temperature for 10 minutes in the dark and fluorescence determined by flow cytometer. Living cells are not stained by either Annexin-V-FITC or propidium iodide, while early apoptosis is indicated by staining with Annexin-V-FITC only and necrotic cells are stained by both Annexin-V-FITC and propidium iodide.

[2] = test system: normal keratinocytes (KC); assay: Annexin-V-FITC FACScan apoptosis analysis; settings: FIG. 23
Protocol: as §1, §2, §3

skin fibroblasts (SkinF) = assay: Annexin-V-FITC FACScan apoptosis analysis; settings: skin fibroblast (SkinF), FIG. 23
Protocol: as §1, §2, §3

[3] = test system: HT29 colon cancer xenografts; assay: In vivo tumour growth of HT29 colon cancer xenografts; set-up: species or system Balb/c athymic mice
Protocol: Balb/c female athymic mice (8 weeks of age obtained from the Animal Resource Centre, Perth, Western Australia) were maintained under pathogen-free conditions and fed standard mouse chow and water ad lib. The mice were divided into groups of ten each. Mice in different groups were marked by ear notching. Briefly, the mice were anaesthetised using isoflurothane by inhalation and their ears marked using a surgical punch. After a recovery period of 48 hours, the mice in each group were injected with 1×10^6 HT29 colon cancer cells in standard DMEM culture medium subcutaneously dorsally behind the right shoulder using a 21-gauge needle. Animal weights and tumour sizes (breadth and length measured with callipers) were recorded weekly. Mice were sacrificed by CO2 asphyxiation and tumour mass excised for measurement.
Mice were injected twice weekly for four weeks commencing 10 days after tumour cell inoculation with DMEM, signal peptide ([…]) (designated “carrier”) (SEQ ID No: 1) or the […] (IK-1) (SEQ ID No: 19) peptide agent, and tumour growth was compared to an untreated control group.
Colon cancer inhibition by peptide […] (IK2P) (SEQ ID No: 18) administered intravenously to colon tumour bearing Balb/c athymic mice as per the protocol described above, is shown in FIG. 20. Colon tumour xenografts were achieved by injection of 1×10^6 HT29 colon cancer cells as above. […]

cancer cell lines = assay: Proliferation of cancer cell lines with signal peptide alone; assay type: cell-based; settings: any cancer cell lines tested, data not shown
HT29 colon cancer cells [4] = test system: HT29 colon cancer cells
Protocol: (§7) An assay using the substrate methylthiazoletetrazolium (MTT) was utilised to determine the inhibitory affect of peptide agents on cancer cell proliferation. MTT substrate (CAT No. M-2128, Sigma) is cleaved in growing cells to yield a water insoluble salt. After solubilisation of the salt, a coloured product is produced that allows quantitation of the proliferative activity of the cultured cells. To prepare the MTT solution for use in the assay, 100 mg of MTT is mixed with 20 ml of PBS at pH 7.4. The resulting solution is filter sterilised (0.2 μM syringe filter) and stored at 4° C. protected from light until use.
(§8) Cells from the colon cancer cell line HT29 were seeded into wells of a 96-well microlitre plate in Dulbecco's Modified Eagle's Medium (DMEM) supplemented with 10% foetal bovine serum, glutamine, Hepes, and antibiotics at a concentration of 2,000 cells/100 μl and cultured for 24 hours in 5% CO2 in air at 37° C. After the 24 hour incubation period the test agent (solubilised in complete DMEM) is added to test wells to a final media volume of 200 μl and the microtitre plate is incubated for a further 48 to 72 hour period.
(§9) A 20 μl volume of the MTT solution prepared as above is then added to the test wells and the microtitre plate incubated for further 3 hours in 5% CO2 in air at 37° C. The plate is subsequently centrifuged for 5 minutes at 2,000 rpm in a microplate carrier. The supernatant is then removed from the wells using a multichannel pipette leaving MTT crystals in the wells.
(§10) To the wells is then added 150 μl of 6:1 v/v DMSO/glycine solution (0.1 M glycine and 0.1 M NaCl adjusted to pH 10.5 using NaOH) and the MTT crystals are dissolved by gently vortexing the microtitre plate. Absorbance is read at 550 nm using a microtitre plate reader.

HT29 colon cancer cells [5] = assay: Cell proliferation assay using MTT; settings: for inhibition of proliferation (in words): relative to untreated control cells
Protocol: as §7, §8, §9, §10

cytoplasmic domain of β6 = target: T1, cytoplasmic domain of β6 (Homo sapiens, UniProt P18564); assay: ELISA binding of MAP kinase fragments to the cytoplasmic domain of β6; settings: FIG. 1 and FIG. 4
T1 sequence (P18564 737-788): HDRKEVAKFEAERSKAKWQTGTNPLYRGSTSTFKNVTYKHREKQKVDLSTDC
Protocol: Primary antibody detection for the MAP kinase is then added to the test wells and the ELISA plate is allowed to stand for a further 30 minutes at room temperature before the antibody solution is decanted from the plate and the wells again washed with the wash solution. Optimal dilutions of primary detection antibody are pre-determined for each target MAP kinase. […] The wells are read at 405 nm using a microplate reader (Bio-Rad). […]
The binding of various MAP kinases to the cytoplasmic domain of β6 was tested using the assay described in Example 1.1. […] (SEQ ID No: 26), and the binding interaction detected using the anti-β6 antibody R6G9. […]

ERK2 = assay: ELISA assay for detection of MAP kinase binding to biotinylated peptide; settings: result in words
Protocol: (§4) An assay was developed for detecting the ability of MAP kinases to bind with a peptide agent in solution.
(§5) Briefly, the MAP kinase is added to an eppendorf tube containing a biotinylated test peptide in phosphate buffered saline (PBS) at pH 7.4. The mixture is allowed to stand at room temperature for 10 minutes with occasional mixing by gentle inversion of the tube. The MAP kinase/test peptide mixture is then transferred to a pre-washed (PBS×3×100 μl) 96-well streptavidin coated ELISA microtitre plate and allowed to stand for 60 minutes at room temperature. At the end of the 60 minute period, the MAP kinase/test peptide mixture is tipped from the ELISA plate and the wells washed 3 times with wash solution (PBS+0.05% Tween−20).
(§6) Primary antibody detection for the MAP kinase is then added to the test wells and the ELISA plate is allowed to stand for a further 30 minutes at room temperature before the antibody solution is decanted from the plate and the wells again washed with the wash solution. Optimal dilutions of primary detection antibody are pre-determined for each target MAP kinase. Alkaline-phosphatase or other enzyme conjugated anti-primary species antibody at a dilution of 1:2000 v/v is subsequently added to the wells and the microtitre plate is allowed to stand for another 30 minutes at room temperature, before the washing step is repeated and phosphatase detection reagent is added to the wells and the colour reaction allowed to develop. The wells are read at 405 nm using a microplate reader (Bio-Rad). Controls comprise non-biotinylated peptide and biotinylated peptide alone

ERK1 = target: T2, ERK1 (Homo sapiens, UniProt P27361); assay: as above; settings: FIG. 2
T2 construct: GST (N, cleaved yes); made in house
Protocol: as §4, §5, §6

T2 sequence (P27361 whole entry, species assumed): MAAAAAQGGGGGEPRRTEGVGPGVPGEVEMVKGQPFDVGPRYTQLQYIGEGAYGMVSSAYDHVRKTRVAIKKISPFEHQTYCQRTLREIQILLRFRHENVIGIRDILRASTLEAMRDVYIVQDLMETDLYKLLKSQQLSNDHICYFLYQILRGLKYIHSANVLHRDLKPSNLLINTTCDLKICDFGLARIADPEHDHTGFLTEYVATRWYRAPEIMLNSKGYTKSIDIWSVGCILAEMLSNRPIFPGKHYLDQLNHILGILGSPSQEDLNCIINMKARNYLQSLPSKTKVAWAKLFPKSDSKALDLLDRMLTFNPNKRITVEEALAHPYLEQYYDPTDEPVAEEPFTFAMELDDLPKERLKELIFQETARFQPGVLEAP

Compound: O=c1[nH]cc(F)c(=O)[nH]1 [5-FU, 5-Fluorouracil, reference compound]
impact on proliferation of normal HUVEC cells (HUVEC cells): toxicity

Compound: CN[C@@H]1C[C@H]2O[C@@](C)([C@@H]1OC)n1c3ccccc3c3c4c(c5c6ccccc6n2c5c31)C(=O)NC4 [staurosporin, Staurosporine, reference compound]
induction of apoptosis (HT29 colon cancer cells [1]): apoptosis was induced | induction of apoptosis (HUVEC): induced apoptosis | induction of apoptosis [2]: induced apoptosis | induction of apoptosis (skin fibroblasts (SkinF)): induced apoptosis

Compound: AAVALLPAVLLALLA [nfkb, reference compound]
mouse weight at day 28 ([3]; intra-tumoural injections, day 28 relative to time 0 / control group, FIG. 18B): marked weight loss

Compound: AAVALLPAVLLALLAP [nfkbp, K-FGF signal peptide]
effect of signal peptide alone on proliferation (cancer cell lines): essentially no effect

Compound: AAVALLPAVLLALLAPRSKAKNPLYR [nfkb10(4)p]
impact on proliferation of normal HUVEC cells (HUVEC cells): relatively minimal | inhibition of proliferative response compared to 5-FU (HT29 colon cancer cells [4]): more effective

Compound: AAVALLPAVLLALLARSKAKNPLYR (also: acetate salt) [nfkb10(4)acetate]
inhibition of proliferation at the highest concentration (HT29 colon cancer cells [5]; HT29, MTT, highest concentration of peptide employed): total inhibition

Compound: AAVALLPAVLLALLARSKAKNPLYR [IK2]
induction of apoptosis (HUVEC): essentially no apoptosis | induction of apoptosis [2]: essentially no apoptosis | induction of apoptosis (skin fibroblasts (SkinF)): essentially no apoptosis

mouse weight at day 28 ([3]; mouse, in vivo): Substantially no difference
Compound: AAVALLPAVLLALLARSKAKWQTGTNPLYR [IK-1]
impact on proliferation of normal HUVEC cells (HUVEC cells; HUVEC, MTT): essentially no impact

Compound: AAVALLPAVLLALLARSRARNPLYR [nf-b5-10-4]
degree of inhibition compared with nf-b5-frag 5 (HT29 colon cancer cells [5]; HT29, MTT, FIG. 14G): greater degree of inhibition | inhibition of proliferation (in words) (HT29 colon cancer cells [5]; HT29, MTT): inhibited proliferation

Compound: Alkyl(4): stearic acid coupled to the RSKAKNPLYR peptide (also: stearic acid coupled (site not given here))
inhibition of proliferation (in words) (HT29 colon cancer cells [5]; HT29, MTT): effective

Compound: GRKKRRQRRRPQCG [TAT-G, reference compound]
toxicity of carrier peptide alone (HT29 colon cancer cells [5]; HT29, FIG. 8 and FIG. 9): some toxicity

Compound: HRDLKPSNLAVNEDCELKILDFGLAR [p38 MAP kinase fragment]
binding to the cytoplasmic domain of β6 (cytoplasmic domain of β6): bound

binding to ERK2 (ERK2): bound by ERK2
Compound: KEKLKNPLFK [β2 (10(4)]

binding to ERK2 (ERK2): still bound by ERK2
Compound: RARAKNPLYK

binding to ERK2 (ERK2): binds to ERK2 | binding to ERK2 (ERK2; listed as RSKAKNPLYR): still bound by ERK2
Compound: RSKAKNPLYR [10(4)]

binding to ERK1 (ERK1): bind | binding to ERK2 (ERK2): bind
Compound: RSKAKWQTGTNPLYR

binding to ERK2 (ERK2): still bound by ERK2
Compound: RSRARNPLYR

Compound: VTVLALGALAGVGVGRSKAKWQTGTNPLYR [Frag 5B3]
proliferation of the cells relative to control cells (HT29 colon cancer cells [5]; HT29, MTT, higher concentration of the peptides used, FIG. 5): about 37%
